# US20190328665A1, “LIPOSOME COMPOSITIONS ENCAPSULATING MODIFIED CYCLODEXTRIN COMPLEXES AND USES THEREOF” (priority 2014, published 2019)
# Columns and labels:
# [1] = mouse, in vivo, iv
# Protocol: Coumarin 334 was used as a drug surrogate to assess biodistribution and pharmacokinetics of cyclodextrin-encapsulated liposomes. […] Female athymic nu/nu mice bearing HCT116 subcutaneous xenografts were used in the study following a modified protocol described in Macdiarmid et al. (2007) Cancer Cell 11:431-445. When the tumor volumes reached 400-600 mm^3, 12 mice were treated intravenouslys (i.v.) with 200 μL cyclodextrin-encapsulated, liposomal (CYCL-)coumarin 334 (0.5 mg/mL). Posttreatment, four mice were euthanized at time points 2, 24, and 48 hours and tumor, spleen, liver, kidneys, heart, and lungs were excised and weighed. Blood was also collected, and plasma was separated and stored at 4° C. Except for plasma, each frozen tissue was homogenized and sonicated in 0.9% saline [3×volume (μL) of tissue mass (mg)]. […] The samples were centrifuged (6,000×g for 10 minutes) and the fluorescence in the supematants was measured by a CytoFluor II fluorescence multiwall plate reader (Applied Biosystems) using excitation 485 nm/emission 530 nm. […]
# To establish biodistribution and pharmacokinetics of the CYCL liposomes, liposomes loaded with coumarin 334 encapsulated in cyclodextrin VI were used to treat HCT116-bearing mice by intravenous (i.v.) injection. Samples from major tissues harvested at 2, 24, and 48 hours post-treatment were analyzed for their fluorescence.
# [2] = system: RKO xenografts; assay: RKO xenograft tumor growth; format: in vivo, nude mice; settings: free drug 150 mg/kg
# Protocol: (§1) Tumor volume was recorded every 48 hours.
# With the free drug, severe acute toxicity was evident. In previous studies, the free drug was administered by oral gavage, because its solubility is not sufficient for intravenous dosing.
# [3] = Phase II / Phase 2 trials; cited from earlier work
# [4] = physchem; format: physicochemical; settings: for solubility: water
# Protocol: (§2) Equimolar quantities of the drug (0.1 mmol; 30-50 mg) and appropriate cyclodextrin ([…]; 110-185 mg) were dissolved separately in methanol (nearly saturated; ˜1-2 mL) and deionized water (˜10-20 mg/mL), respectively. The methanolic solution of the drug was then added dropwise into the cyclodextrin solution with agitation ensuring a uniform suspension. This suspension was then shaken at 55° C. for 36-48 hours using an Eppendorf Thermomixer R. The solution was filtered to remove particulate matter and flash frozen in a dry ice/acetone bath followed by lyophilization. The lyophilized complex was stored at −20° C. until further use.
# Organic dyes (coumarins) were used to determine whether the modified cyclodextrins could encapsulate and transport hydrophobic compounds across the liposome bilayer. Coumarins are very hydrophobic and a dramatic improvement in aqueous solubility was observed after they were encapsulated into 6′-mono-ethylenediamino-6′-deoxy-cyclodextrin (compound III). It was determined that the most efficient and convenient way to encapsulate the coumarins was by freeze drying (Cao et al. (2005) Drug Dev. Industr. Pharm. 31:747-756; Badr-Eldin et al. (2008) Eur. J. Pharm. Biopharm. 70:819-827). […] Once dissolved, the cyclodextrin-coumarin complexes were incubated with pre-formed liposomes exactly as described above, using a pH gradient to drive the compounds across the bilayer. Following overnight dialysis to remove unincorporated complexes, the liposomes were subsequently disrupted with methanol and the coumarin fluorescence measured. As shown by fluorescence spectroscopy, all cyclodextrin-dye complexes were incorporated into liposomes with high efficiency (>95%; FIG. 5). […] The incorporation of coumarin dyes into liposomes was easily discerned by the naked eye, as the coumarin-cyclodextrin liposomes were bright yellow, whereas control liposomes (made without cyclodextrins, for example) were colorless (FIGS. 5A-5C).
# [5] = Remote loading of cyclodextrin-encapsulated dyes/drugs into liposomes; format: physicochemical
# Protocol: as §2
# The lyophilized powder complex described above was pulverized and incubated with appropriate liposomal solutions (30-40 mg drug equivalent in 6 mL liposomal solution, to achieve loading ratios of 5-8 mg/mL concentrations) for 1 hour at 65° C. They were centrifuged at 1,000×g for 3 minutes to remove particulate matter and then dialyzed against 300 mM sucrose or commercial PBS solution (pH 7.4) overnight to remove material that had not been loaded into the liposomes. The size distributions of the liposomal formulations were characterized using the Malvem ZS90 instrument described above.
# The liposomal solution was dialyzed against PBS overnight.
# Organic dyes (coumarins) were used to determine whether the modified cyclodextrins could encapsulate and transport hydrophobic compounds across the liposome bilayer. […] It was determined that the most efficient and convenient way to encapsulate the coumarins was by freeze drying (Cao et al. (2005) Drug Dev. Industr. Pharm. 31:747-756; Badr-Eldin et al. (2008) Eur. J. Pharm. Biopharm. 70:819-827). […] Following overnight dialysis to remove unincorporated complexes, the liposomes were subsequently disrupted with methanol and the coumarin fluorescence measured. As shown by fluorescence spectroscopy, all cyclodextrin-dye complexes were incorporated into liposomes with high efficiency (>95%; FIG. 5). […]
# [6] = mouse, in vivo, iv, 100 mg/kg
# [7] = Passive loading of BI-2536 into liposomes; format: physicochemical
# Protocol: Method 1: Encapsulation of BI-2536 in the lipid layer. Hydrogenated egg phosphatidylcholine (Avanti Polar Lipids), cholesterol, and DSPE-PEG2000 (Avanti Polar Lipids) (molar ratios 50:45:5) were dissolved in chloroform (20 mL). Ten milligrams of BI-2536 (in 1 mL chloroform) was added and the solvent was evaporated to generate a thin film. One milliliter of PBS (pH 7.4) was added to hydrate the lipid layer, and the mixture was shaken at 50° C. for 2 hours as described above. The vesicle suspension was sonicated for 30 min and then extruded successively through 0.4-, 0.2-, and 0.1-μm polycarbonate membranes (Whatman; Nuclepore Track-Etched Membrane) at 50° C. to obtain the final liposomes with low polydispersity at the desired size. The liposomes were then dialyzed in PBS overnight to remove unentrapped drug. The average size and polydispersity index were then measured by dynamic light-scattering experiments on a Malvem Z90. Drug content was calculated by rupturing the liposomes with an equal volume of methanol and measuring the UV-vis absorbance on a NanoDrop 1000.
# Method 2: Hydration of the lipid layer with an aqueous formulation of BI-2536. Hydrogenated egg phosphatidylcholine (Avanti Polar Lipids), cholesterol, and DSPE-PEG2000 (Avanti Polar Lipids) (molar ratios 50:45:5) were dissolved in chloroform (20 mL), and the solvent was evaporated in vacuo to generate a thin film. One milliliter of aqueous BI-2536 (4 mg; pH 5.5) was added to hydrate the lipid layer, and the mixture was shaken at 50° C. for 2 hours as described above. The vesicle suspension was sonicated for 30 minutes and then extruded successively through 0.4-, 0.2-, and 0.1-μm polycarbonate membranes (Whatman; Nuclepore Track-Etched Membrane) at 50° C. to obtain the final liposomes with low polydispersity at the desired size. The liposomes were then dialyzed against PBS overnight to remove unentrapped drug. The average size and polydispersity index were then measured by dynamic light-scattering experiments on a Malvem Z90. Drug content was calculated by rupturing the liposomes with an equal volume of methanol and measuring the UV-vis absorbance on a NanoDrop 1000.
# The cyclodextrin-based loading method was also compared with the most common approaches to entrapping hydrophobic and insoluble agents in liposomes. First, direct entrapment of BI-2536 in the lipid bilayer was attempted. BI-2536 was co-evaporated with hydrogenated egg phosphatidylcholine-cholesterol-1,2-distearoyl-sn-glycero-3-phosphoethanolamine-N-[methoxy(polyethylene glycol)-2000 (DSPE-PEG 2000) to prepare a thin film, which was subsequently hydrated with 1 mL PBS and extruded through a 100-nm polycarbonate membrane at 700 psi to prepare small, unilamellar vesicles (average particle size (Zavg) 126 nm; PDI 0.09). Upon overnight dialysis against PBS to remove unentrapped drug, the drug-containing liposomes rapidly swelled (Zavg 539 nm; PDI 0.49) and released nearly 90% of the entrapped drug. Second, the lipid film was hydrated with an aqueous formulation of BI-2536 (passive loading). Hydration of the lipid film, followed by extrusion and dialyses, led to stable liposomes. However, the encapsulation efficiency was <10%, 20-fold less than achievable with the modified cyclodextrins described herein.
# [8] = in vivo; settings: female, athymic nu/nu, mouse, iv
# [9] = system: HCT116 cells with genetically inactivated TP53 alleles; assay: Xenograft of HCT116 cells with genetically inactivated TP53 alleles; set-up: species or system nude mice; settings: mouse, in vivo
# Protocol: as §1
# [10] = system: HCT116 xenografts; assay: HCT116 subcutaneous xenograft tumor growth; format: in vivo, nude mice
# Protocol: as §1
# [11] = direct entrapment in lipid bilayer, after extrusion
# [12] = direct entrapment in lipid bilayer, after overnight dialysis against PBS
compound,measurement,setting,value
CC(=O)c1cc2cc3c4c(c2oc1=O)CCCN4CCC3 [coumarin 334],persistence in blood and tumor,[1],persisted in the blood and tumor
same,tissue clearance,[1],cleared from most of the tissues examined
O=C(NOC[C@H](O)CO)c1ccc(F)c(F)c1Nc1ccc(I)cc1F [PD-0325901],slowing of tumor growth,[2],~5%
same,toxicity in clinical trials,[3],retinal vein occlusion (RVO)
same,increase in solubility after encapsulation into cyclodextrins,[4],~40 fold
same,solubility,[4],100 µg/mL
CCOC(=O)c1cc2cc3c4c(c2oc1=O)CCCN4CCC3 [coumarin 314],loading efficiency when encapsulated in unionizable native β-cyclodextrin,[5]; citrate liposomes,only marginally improved the loading efficiency
same,loading into liposomes in the absence of cyclodextrins,"[5]; citrate liposomes, identical conditions",poorly incorporated into liposomes
CC[C@@H]1C(=O)N(C)c2cnc(Nc3ccc(C(=O)NC4CCN(C)CC4)cc3OC)nc2N1C1CCCC1 [BI-2536],acute toxicity / survival,[6],"somewhat lethargic immediately after drug administration, but survived"
same,PDI,[7]; [11],0.09
same,average particle size (Zavg),[7]; [11],126 nm
same,PDI,[7]; [12],0.49
same,average particle size (Zavg),[7]; [12],539 nm
same,entrapped drug released,"[7]; direct entrapment in lipid bilayer, overnight dialysis against PBS",~90%
same,encapsulation efficiency relative to modified cyclodextrins (fold less),[7]; passive loading,20 fold
same,encapsulation efficiency,[7]; passive loading: lipid film hydrated with aqueous BI-2536,< 10%
same,MTD,[8],100 mg/kg
same,toxicity in clinical trials,[3],unacceptable toxicity (grade 4 neutropenia) at sub-therapeutic doses
same,effect of aminated cyclodextrins V and VI on aqueous solubility,[4],dramatically improved
same,solubility,[4],500 µg/mL
same,tumor regressions,[9],not with free drug
same,tumor regressions,"[10]; mouse, in vivo",not with free drug
same,slowing of tumor growth,[10]; two i.v. doses of 100 mg/kg,~30%
"6′,6′,6′,6′,6′,6′,6′-heptakis-succinyl-β-cyclodextrin [IX]","liposome loading of PD-0325901 among cyclodextrins VI, VII, VIII, IX",[5]; acidic or basic liposomes,best liposome loading
